# Reference: US8580794B2 (AbbVie Inc., priority 2009, dated 2013)
# Like-named read-outs stand apart in the source and are kept apart here.
# Biological target: GST-Bc1-2 (Homo sapiens, UniProt P10415)
# Experiment: Time Resolved-Fluorescence Resonance Energy Transfer (TR-FRET) Bcl-2 binding assay with F-Bak peptide probe
# [1] = GST-Bcl-2 1 nM, F-Bak probe 100 nM, Tb-anti-GST 1 nM, '<' = below limit of detection, read-out: TR-FRET Bcl-2 Binding Ki
# [2] = Table 5, direct comparison Z=N vs Z=C analogs, read-out: Bcl-2 FRET ki
# [3] = Table 4, selected compounds of Ser. No. 12/631,404, read-out: Bcl-2 FRET Ki
# Sequence of GST-Bc1-2 (P10415 whole entry): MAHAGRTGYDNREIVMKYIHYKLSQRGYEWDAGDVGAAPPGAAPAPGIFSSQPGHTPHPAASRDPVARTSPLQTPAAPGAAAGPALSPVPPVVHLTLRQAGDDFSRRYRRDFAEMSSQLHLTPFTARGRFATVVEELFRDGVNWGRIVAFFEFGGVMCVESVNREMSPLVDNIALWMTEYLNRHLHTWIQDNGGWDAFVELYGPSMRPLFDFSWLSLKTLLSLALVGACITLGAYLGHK
Compound,Ki [1] [nM],Ki [2] [nM],Ki [3] [nM]
"CC1(C)CCC(CN2CCN(c3ccc(C(=O)NS(=O)(=O)c4ccc(NC[C@@H]5CCCOC5)c([N+](=O)[O-])c4)c(Oc4cnc5[nH]ccc5c4)c3)CC2)=C(c2ccc(Cl)cc2)C1 [Example 11, 4-(4-{[2-(4-chlorophenyl)-4,4-dimethylcyclohex-1-en-1-yl]methyl}piperazin-1-yl)-N-[(3-nitro-4-{[(3S)-tetrahydro-2H-pyran-3-ylmethyl]amino}phenyl)sulfonyl]-2-(1H-pyrrolo[2,3-b]pyridin-5-yloxy)benzamide]",0.016,0.016,–
"CC1(C)CCC(CN2CCN(c3ccc(C(=O)NS(=O)(=O)c4ccc5ccccc5c4)c(Oc4cnc5[nH]ccc5c4)c3)CC2)=C(c2ccc(Cl)cc2)C1 [Example 14, 4-(4-{[2-(4-chlorophenyl)-4,4-dimethylcyclohex-1-en-1-yl]methyl}piperazin-1-yl)-N-(2-naphthylsulfonyl)-2-(1H-pyrrolo[2,3-b]pyridin-5-yloxy)benzamide]",2.8,–,–
"COCCNc1ccc(S(=O)(=O)NC(=O)c2ccc(N3CCN(CC4=C(c5ccc(Cl)cc5)CC(C)(C)CC4)CC3)cc2Oc2cnc3[nH]ccc3c2)cc1S(=O)(=O)C(F)(F)F [Example 16, 4-(4-{[2-(4-chlorophenyl)-4,4-dimethylcyclohex-1-en-1-yl]methyl}piperazin-1-yl)-N-({4-[(2-methoxyethyl)amino]-3-[(trifluoromethyl)sulfonyl]phenyl}sulfonyl)-2-(1H-pyrrolo[2,3-b]pyridin-5-yloxy)benzamide]",0.219,0.219,–
"CC1(C)CCC(CN2CCN(c3ccc(C(=O)NS(=O)(=O)c4ccc(NCC5CCOCC5)c(S(=O)(=O)C(F)(F)F)c4)c(Oc4cnc5[nH]ccc5c4)c3)CC2)=C(c2ccc(Cl)cc2)C1 [Example 17, 4-(4-{[2-(4-chlorophenyl)-4,4-dimethylcyclohex-1-en-1-yl]methyl}piperazin-1-yl)-2-(1H-pyrrolo[2,3-b]pyridin-5-yloxy)-N-({4-[(tetrahydro-2H-pyran-4-ylmethyl)amino]-3-[(trifluoromethyl)sulfonyl]phenyl}sulfonyl)benzamide]",0.09,0.09,–
"CC1(C)CCC(CN2CCN(c3ccc(C(=O)NS(=O)(=O)c4ccc(NCC5CCOCC5)c([N+](=O)[O-])c4)c(Oc4ccc5[nH]ccc5c4)c3)CC2)=C(c2ccc(Cl)cc2)C1 [Example 18, 4-(4-{[2-(4-chlorophenyl)-4,4-dimethylcyclohex-1-en-1-yl]methyl}piperazin-1-yl)-2-(1H-indol-5-yloxy)-N-({3-nitro-4-[(tetrahydro-2H-pyran-4-ylmethyl)amino]phenyl}sulfonyl)benzamide]",0.017,0.017,–
"CC1(C)CCC(CN2CCN(c3ccc(C(=O)NS(=O)(=O)c4ccc(N[C@H]5CC[C@H](N6CCOCC6)CC5)c([N+](=O)[O-])c4)c(Oc4ccc5[nH]ccc5c4)c3)CC2)=C(c2ccc(Cl)cc2)C1 [Example 19, Trans-4-(4-{[2-(4-chlorophenyl)-4,4-dimethylcyclohex-1-en-1-yl]methyl}piperazin-1-yl)-2-(1H-indol-5-yloxy)-N-({4-[(4-morpholin-4-ylcyclohexyl)amino]-3-nitrophenyl}sulfonyl)benzamide]",0.226,0.226,0.226
"COCCNc1ccc(S(=O)(=O)NC(=O)c2ccc(N3CCN(CC4=C(c5ccc(Cl)cc5)CC(C)(C)CC4)CC3)cc2Oc2ccc3[nH]ccc3c2)cc1[N+](=O)[O-] [Example 20, 4-(4-{[2-(4-chlorophenyl)-4,4-dimethylcyclohex-1-en-1-yl]methyl}piperazin-1-yl)-2-(1H-indol-5-yloxy)-N-({4-[(2-methoxyethyl)amino]-3-nitrophenyl}sulfonyl)benzamide]",0.181,0.181,0.181
